ChEMBL document CHEMBL4038347, “Converting Teixobactin into a Cationic Antimicrobial Peptide (AMP)” (2017)
Converted amounts (≈) assume the structure as drawn. The source made the active and inactive calls. The rule behind the calls is not given here. Where a SMILES comes first, the peptide text is derived from it. Bridges are numbered along the chain shown (N, C = ends). [ ]: non-standard residue; d: D form. d(aIle) = CC[C@H](C)[C@@H](N)C(=O)O; dNMeF = CN[C@H](Cc1ccccc1)C(=O)O; Orn = NCCC[C@H](N)C(=O)O

Assays:
Type in all cases: functional
Escherichia coli = experiment: Antibacterial activity against Escherichia coli ATCC 25922 after 24 hrs by broth microdilution method
Bacillus subtilis = experiment: Antibacterial activity against Bacillus subtilis ATCC 6051 after 24 hrs by broth microdilution method
Staphylococcus aureus = experiment: Antibacterial activity against Staphylococcus aureus ATCC 29213 after 24 hrs by broth microdilution method
Pseudomonas aeruginosa = experiment: Antibacterial activity against Pseudomonas aeruginosa ATCC 27853 after 24 hrs by broth microdilution method

| SMILES | MIC (Escherichia coli; ATCC 25922, 24 h) | MIC (Bacillus subtilis; ATCC 6051, 24 h) | MIC (Staphylococcus aureus; ATCC 29213, 24 h) | MIC (Pseudomonas aeruginosa; ATCC 27853, 24 h) | MIC (Escherichia coli) | MIC (Pseudomonas aeruginosa) | MIC (Bacillus subtilis) | MIC (Staphylococcus aureus) |
| --- | --- | --- | --- | --- | --- | --- | --- | --- |
| CC[C@H](C)[C@H](NC(=O)[C@@H](Cc1ccccc1)NC)C(=O)N[C@@H](CO)C(=O)N[C@H](CCC(N)=O)C(=O)N[C@@H](C(=O)N[C@H](C(=O)N[C@@H](CCCCN)C(=O)N[C@H]1C(=O)N[C@@H](C)C(=O)N[C@@H](CCCN)C(=O)N[C@@H]([C@@H](C)CC)C(=O)O[C@H]1C)[C@@H](C)CC)[C@@H](C)CC | 512 µg/mL (≈ 412 µM) | 16 µg/mL (≈ 12.9 µM) | 128 µg/mL (≈ 103 µM) | 512 µg/mL (≈ 412 µM) | – | – | – | – |
| CC[C@H](C)[C@H](NC(=O)[C@@H](Cc1ccccc1)NC)C(=O)N[C@@H](CCCCN)C(=O)N[C@H](CCCCN)C(=O)N[C@@H](C(=O)N[C@H](C(=O)N[C@@H](CCCCN)C(=O)N[C@H]1C(=O)N[C@@H](C)C(=O)N[C@@H](CCCN)C(=O)N[C@@H]([C@@H](C)CC)C(=O)O[C@H]1C)[C@@H](C)CC)[C@@H](C)CC (H-[dNMeF]IK[dK][d(aIle)]IK[dT]A[Orn]I; ester 8-C) | 32 µg/mL (≈ 24.9 µM) | 16 µg/mL (≈ 12.5 µM) | 256 µg/mL (≈ 199 µM) | 64 µg/mL (≈ 49.8 µM) | – | – | – | – |
| CC[C@H](C)[C@H](NC(=O)[C@@H](Cc1ccccc1)NC)C(=O)N[C@@H](CO)C(=O)N[C@H](CCC(N)=O)C(=O)N[C@@H](C(=O)N[C@H](C(=O)N[C@@H](CO)C(=O)N[C@H]1C(=O)N[C@@H](C)C(=O)N[C@@H](CCN=C(N(C)C)N(C)C)C(=O)N[C@@H]([C@@H](C)CC)C(=O)O[C@H]1C)[C@@H](C)CC)[C@@H](C)CC | – | 4 µg/mL (≈ 3.11 µM) | 64 µg/mL (≈ 49.7 µM) | – | inactive | inactive | – | – |
| CC[C@H](C)[C@H](NC(=O)[C@@H](Cc1ccccc1)NC)C(=O)N[C@@H](CN)C(=O)N[C@H](CN)C(=O)N[C@@H](C(=O)N[C@H](C(=O)N[C@@H](CO)C(=O)N[C@H]1C(=O)N[C@@H](CN)C(=O)N[C@@H](CCCCN)C(=O)N[C@@H]([C@@H](C)CC)C(=O)O[C@H]1C)[C@@H](C)CC)[C@@H](C)CC | 64 µg/mL (≈ 53.9 µM) | 4 µg/mL (≈ 3.37 µM) | 16 µg/mL (≈ 13.5 µM) | 32 µg/mL (≈ 26.9 µM) | – | – | – | – |
| CC[C@H](C)[C@H](NC(=O)[C@@H](Cc1ccccc1)NC)C(=O)N[C@@H](CN)C(=O)N[C@H](CCC(N)=O)C(=O)N[C@@H](C(=O)N[C@H](C(=O)N[C@@H](CO)C(=O)N[C@H]1C(=O)N[C@@H](CN)C(=O)N[C@@H](CCCCN)C(=O)N[C@@H]([C@@H](C)CC)C(=O)O[C@H]1C)[C@@H](C)CC)[C@@H](C)CC | 64 µg/mL (≈ 52 µM) | 4 µg/mL (≈ 3.25 µM) | 4 µg/mL (≈ 3.25 µM) | 64 µg/mL (≈ 52 µM) | – | – | – | – |
| CC[C@H](C)[C@H](NC(=O)[C@@H](Cc1ccccc1)NC)C(=O)N[C@@H](CO)C(=O)N[C@H](CCC(N)=O)C(=O)N[C@@H](C(=O)N[C@H](C(=O)N[C@@H](CO)C(=O)N[C@H]1C(=O)N[C@@H](C)C(=O)N2C[C@@H](N)C[C@H]2C(=O)N[C@@H]([C@@H](C)CC)C(=O)O[C@H]1C)[C@@H](C)CC)[C@@H](C)CC | – | – | – | – | inactive | inactive | inactive | inactive |
| CC[C@H](C)[C@H](NC(=O)[C@@H](Cc1ccccc1)NC)C(=O)N[C@@H](CO)C(=O)N[C@H](CN)C(=O)N[C@@H](C(=O)N[C@H](C(=O)N[C@@H](CN)C(=O)N[C@H]1C(=O)N[C@@H](CN)C(=O)N[C@@H](CCCCN)C(=O)N[C@@H]([C@@H](C)CC)C(=O)O[C@H]1C)[C@@H](C)CC)[C@@H](C)CC | 64 µg/mL (≈ 53.9 µM) | 16 µg/mL (≈ 13.5 µM) | 64 µg/mL (≈ 53.9 µM) | 64 µg/mL (≈ 53.9 µM) | – | – | – | – |
| CC[C@H](C)[C@H](NC(=O)[C@@H](Cc1ccccc1)NC)C(=O)N[C@@H](CO)C(=O)N[C@H](CCC(N)=O)C(=O)N[C@@H](C(=O)N[C@H](C(=O)N[C@@H](CN)C(=O)N[C@H]1C(=O)N[C@@H](CN)C(=O)N[C@@H](CCCCN)C(=O)N[C@@H]([C@@H](C)CC)C(=O)O[C@H]1C)[C@@H](C)CC)[C@@H](C)CC | 128 µg/mL (≈ 104 µM) | 8 µg/mL (≈ 6.5 µM) | 32 µg/mL (≈ 26 µM) | 128 µg/mL (≈ 104 µM) | – | – | – | – |
| CC[C@H](C)[C@H](NC(=O)[C@@H](Cc1ccccc1)NC)C(=O)N[C@@H](CO)C(=O)N[C@H](CCC(N)=O)C(=O)N[C@@H](C(=O)N[C@H](C(=O)N[C@@H](CO)C(=O)N[C@H]1C(=O)N[C@@H](C)C(=O)N[C@@H](CCCN)C(=O)N[C@@H]([C@@H](C)CC)C(=O)O[C@H]1C)[C@@H](C)CC)[C@@H](C)CC | 32 µg/mL (≈ 26.6 µM) | 0.25 µg/mL (≈ 0.208 µM) | 2 µg/mL (≈ 1.66 µM) | 256 µg/mL (≈ 213 µM) | – | – | – | – |
| CC[C@H](C)[C@H](NC(=O)[C@@H](Cc1ccccc1)NC)C(=O)N[C@@H](CCCCN)C(=O)N[C@H](CCCCN)C(=O)N[C@@H](C(=O)N[C@H](C(=O)N[C@@H](CO)C(=O)N[C@H]1C(=O)N[C@@H](C)C(=O)N[C@@H](CCCNC(=N)N)C(=O)N[C@@H]([C@@H](C)CC)C(=O)O[C@H]1C)[C@@H](C)CC)[C@@H](C)CC | 64 µg/mL (≈ 49.8 µM) | 4 µg/mL (≈ 3.11 µM) | 32 µg/mL (≈ 24.9 µM) | 64 µg/mL (≈ 49.8 µM) | – | – | – | – |
| CC[C@H](C)[C@H](NC(=O)[C@@H](Cc1ccccc1)NC)C(=O)N[C@@H](CCCCN)C(=O)N[C@H](CCC(N)=O)C(=O)N[C@@H](C(=O)N[C@H](C(=O)N[C@@H](CO)C(=O)N[C@H]1C(=O)N[C@@H](CCCCN)C(=O)N[C@@H](CCCCN)C(=O)N[C@@H]([C@@H](C)CC)C(=O)O[C@H]1C)[C@@H](C)CC)[C@@H](C)CC (stereo in doubt) | 32 µg/mL (≈ 24.3 µM) | 1 µg/mL (≈ 0.761 µM) | 4 µg/mL (≈ 3.04 µM) | 128 µg/mL (≈ 97.4 µM) | – | – | – | – |

The remaining compounds from weak to strong by MIC (Bacillus subtilis; ATCC 6051, 24 h), led by results:

| MIC (Escherichia coli; ATCC 25922, 24 h) | MIC (Bacillus subtilis; ATCC 6051, 24 h) | MIC (Staphylococcus aureus; ATCC 29213, 24 h) | MIC (Pseudomonas aeruginosa; ATCC 27853, 24 h) | MIC (Escherichia coli) | MIC (Pseudomonas aeruginosa) | MIC (Bacillus subtilis) | MIC (Staphylococcus aureus) | SMILES |
| --- | --- | --- | --- | --- | --- | --- | --- | --- |
| 128 µg/mL (≈ 103 µM) | 16 µg/mL (≈ 12.9 µM) | – | 128 µg/mL (≈ 103 µM) | – | – | – | inactive | CC[C@H](C)[C@H](NC(=O)[C@@H](Cc1ccccc1)NC)C(=O)N[C@@H](CO)C(=O)N[C@H](CCCCN)C(=O)N[C@@H](C(=O)N[C@H](C(=O)N[C@@H](CCCCN)C(=O)N[C@H]1C(=O)N[C@@H](C)C(=O)N[C@@H](CCCN)C(=O)N[C@@H]([C@@H](C)CC)C(=O)O[C@H]1C)[C@@H](C)CC)[C@@H](C)CC |
| 128 µg/mL (≈ 97.4 µM) | 8 µg/mL (≈ 6.09 µM) | 128 µg/mL (≈ 97.4 µM) | 256 µg/mL (≈ 195 µM) | – | – | – | – | CC[C@H](C)[C@H](NC(=O)[C@@H](Cc1ccccc1)NC)C(=O)N[C@@H](CO)C(=O)N[C@H](CCC(N)=O)C(=O)N[C@@H](C(=O)N[C@H](C(=O)N[C@@H](CCCCN)C(=O)N[C@H]1C(=O)N[C@@H](CCCCN)C(=O)N[C@@H](CCCCN)C(=O)N[C@@H]([C@@H](C)CC)C(=O)O[C@H]1C)[C@@H](C)CC)[C@@H](C)CC |
| 128 µg/mL (≈ 94.4 µM) | 8 µg/mL (≈ 5.9 µM) | 256 µg/mL (≈ 189 µM) | 256 µg/mL (≈ 189 µM) | – | – | – | – | CC[C@H](C)[C@H](NC(=O)[C@@H](Cc1ccccc1)NC)C(=O)N[C@@H](CCCCN)C(=O)N[C@H](CCC(N)=O)C(=O)N[C@@H](C(=O)N[C@H](C(=O)N[C@@H](CCCCN)C(=O)N[C@H]1C(=O)N[C@@H](CCCCN)C(=O)N[C@@H](CCCCN)C(=O)N[C@@H]([C@@H](C)CC)C(=O)O[C@H]1C)[C@@H](C)CC)[C@@H](C)CC |
| 32 µg/mL (≈ 24.1 µM) | 4 µg/mL (≈ 3.01 µM) | 32 µg/mL (≈ 24.1 µM) | 32 µg/mL (≈ 24.1 µM) | – | – | – | – | CC[C@H](C)[C@H](NC(=O)[C@@H](Cc1ccccc1)NC)C(=O)N[C@@H](CCCCN)C(=O)N[C@H](CCCCN)C(=O)N[C@@H](C(=O)N[C@H](C(=O)N[C@@H](CCCCN)C(=O)N[C@H]1C(=O)N[C@@H](C)C(=O)N[C@@H](CCCNC(=N)N)C(=O)N[C@@H]([C@@H](C)CC)C(=O)O[C@H]1C)[C@@H](C)CC)[C@@H](C)CC |
| 64 µg/mL (≈ 53.2 µM) | 2 µg/mL (≈ 1.66 µM) | 2 µg/mL (≈ 1.66 µM) | 256 µg/mL (≈ 213 µM) | – | – | – | – | CC[C@H](C)[C@H](NC(=O)[C@@H](Cc1ccccc1)NC)C(=O)N[C@@H](CO)C(=O)N[C@H](CCCCN)C(=O)N[C@@H](C(=O)N[C@H](C(=O)N[C@@H](CO)C(=O)N[C@H]1C(=O)N[C@@H](C)C(=O)N[C@@H](CCCN)C(=O)N[C@@H]([C@@H](C)CC)C(=O)O[C@H]1C)[C@@H](C)CC)[C@@H](C)CC |
| 32 µg/mL (≈ 25.1 µM) | 1 µg/mL (≈ 0.785 µM) | 4 µg/mL (≈ 3.14 µM) | 64 µg/mL (≈ 50.3 µM) | – | – | – | – | CC[C@H](C)[C@H](NC(=O)[C@@H](Cc1ccccc1)NC)C(=O)N[C@@H](CO)C(=O)N[C@H](CCCCN)C(=O)N[C@@H](C(=O)N[C@H](C(=O)N[C@@H](CO)C(=O)N[C@H]1C(=O)N[C@@H](CCCCN)C(=O)N[C@@H](CCCCN)C(=O)N[C@@H]([C@@H](C)CC)C(=O)O[C@H]1C)[C@@H](C)CC)[C@@H](C)CC (H-[dNMeF]IS[dK][d(aIle)]IS[dT]KKI; ester 8-C) |
| 32 µg/mL (≈ 25.4 µM) | 0.5 µg/mL (≈ 0.397 µM) | 2 µg/mL (≈ 1.59 µM) | 64 µg/mL (≈ 50.8 µM) | – | – | – | – | CC[C@H](C)[C@H](NC(=O)[C@@H](Cc1ccccc1)NC)C(=O)N[C@@H](CO)C(=O)N[C@H](CCC(N)=O)C(=O)N[C@@H](C(=O)N[C@H](C(=O)N[C@@H](CO)C(=O)N[C@H]1C(=O)N[C@@H](CCCCN)C(=O)N[C@@H](CCCN)C(=O)N[C@@H]([C@@H](C)CC)C(=O)O[C@H]1C)[C@@H](C)CC)[C@@H](C)CC |
